# Measurements: patent publication US9234176B2, “Chemically defined production of cardiomyocytes from pluripotent stem cells” (The Board of Trustees of the Leland Stanford Junior …, priority 2012, dated 2016)
# Assays:
# [1] = test system: hiPSCs; assay: Cardiac differentiation of hiPSCs in CDM3, optimisation of media and small molecules (TNNT2 flow cytometry); assay type: cell-based; conditions: for cell death / toxicity of GSK3B inhibitors: in CDM3, FIG. 10g; for inducing cardiac differentiation (GSK3B inhibitors): in CDM3, FIG. 10g-h; for timing of Wnt signaling modulation for cardiac differentiation efficiency: CHIR99021 for 2 days followed by Wnt-C59 for 2 days, in CDM3
# Protocol: Cardiac differentiation of hiPSCs. hiPSCs and hESCs (>p20) were split at 1:10 or 1:12 ratios using EDTA as above and grown for 4 days at which time they reached ˜85% confluence. Media was changed to CDM3, consisting of RPMI 1640 (11875, Life Technologies), 495 μg/mL Oryza sativa-derived recombinant human albumin (A0237, Sigma-Aldrich, 75 mg/mL stock solution in dH2O, stored at −20° C.), 213 μg/mL L-ascorbic acid 2-phosphate (Sigma-Aldrich, 64 mg/mL stock solution in dH2O, stored at −20° C.). Media was changed every other day (48 h). For d0-d2, media was supplemented with 6 μM CHIR99021 (LC Laboratories, Woburn, Mass., USA). On d2, media was change to CDM3 supplemented with […] Wnt-C59 (Cellagentech, San Diego, Calif., USA). Media was changed on d4 and every other day for CDM3.
# Wnt inhibitors assessed were IWP-2, IWR-1 (Sigma-Aldrich), XAV-939, ICG-001 (Selleck Chemicals), IWP-4 (Stemgent, Cambridge, Mass., USA), and Wnt-C59 (Cellagentech). GSK3B inhibitors assessed were CHIR99021 (LC Laboratories), BIO, TWS119 (Selleck Chemicals), 1-azenkenpaullone, TDZD-8, ARA014418, and 3F8 (all Sigma-Aldrich). Inhibitors used for pathway analysis were PD173074, SB203580, LDN193189, SB431542 (all Selleck Chemicals), SU5402, Dorsomorphin, A83-01 (Tocris, Bristol, UK), ALK5 inhibitor (Stemgent), and ITD-1 (Xcessbio, San Diego, Calif., USA). All small molecules were re-suspended to 10 mM in dimethyl sulfoxide (DMSO).
# Flow cytometry. For optimization of cardiac differentiation conditions, cells were cultured in 12-well plates. For analysis of cardiomyocyte differentiation efficacy and subtype specification, expression of TNNT2, MLC2A and MLC2V was analyzed by flow cytometry. At d14-15 of differentiation, the entire well was dissociated with TrypLE Express for 10 min at 37° C. and transferred to flow cytometry tubes (BD Biosciences). Cells were then fixed with 1% PFA for 15 min, permeabilized with 90% methanol for 15 min and stained using 1:200 mouse monoclonal IgG1 TNNT2 (13-11, Thermo Scientific), 1:400 mouse monoclonal IgG2b MLC2A (MYL7, Synaptic Systems) and 1:200 rabbit polyclonal IgG MLC2V (MYL2, ProteinTech) for 45 min at RT. Secondary staining was performed with 1:1000 Alexa Fluor 488 goat anti-mouse IgG1, 1:1000 Alexa Fluor 488 goat anti-rabbit IgG (H+L), 1:1000 Alexa Fluor 647 goat anti-mouse IgG2b and 1:1000 Alexa Fluor 647 goat anti-rabbit IgG (H+L) secondary antibodies for 20 min. […] Cells were analyzed using a FACSAria II (BD Biosciences) with a […] and FACSDiva software. Data were analyzed using FlowJo 8.7 (Tree Star).
# [2] = test system: hiPSC; assay: Analysis of components of defined media for hiPSC cardiac differentiation (contraction score); assay type: cell-based, human; set-up: 9 components subtracting: cardiac differentiation score / 2 components subtracting: cardiac differentiation score: scale not given here
# Text: Development of a Chemically Defined Cardiac Differentiation Platform. We first generated eleven pluripotent hiPSC lines under chemically defined conditions (FIG. 7) on a chemically synthesized vitronectin peptide substrate, with nonenzymatic passaging (FIG. 8). […] To formulate a chemically defined differentiation protocol, we concentrated on the observation that three unrelated media formations are capable of supporting growth factor-based monolayer cardiac differentiation: RPMI+B27-ins, supplemented StemPro-34, and LI-APEL (Table 5). […] Beginning with the 21 components of B27, we subtracted one component at a time and assessed for continued high efficiency differentiation (Table 6a-c) and also assessed components from two other two media (supplemented StemPro-34 and LI-APEL) that yielded benefits (Table 6d-f). We concluded that hiPSC cardiac differentiation was successful in a media consisting of […]: RPMI 1640 basal medium, L-ascorbic acid 2-phosphate (AA 2-P), and BSA (Table 6g).
# Other additions to cardiac differentiation media tested were 10.7 μg/mL recombinant human transferrin, […], 1 μg/mL linoleic acid, 1 μg/mL linolenic acid, 2 ng/mL triiodo-l-thyronine, 2 μg/mL L-carnitine, 1 μg/mL D,L-alpha-tocopherol acetate, 100 ng/mL retinol acetate, 1 μg/mL ethanolamine, 20 ng/mL corticosterone, 9 ng/mL progesterone, 47 ng/mL lipoic acid, 100 ng/mL retinol, 1 μg/mL D,L-alpha-tocopherol, 100 ng/mL biotin, 2.5 ug/mL catalase, 2.5 μg/mL glutathione, 2.5 μg/mL superoxide dismutase, 2 μg/mL L-carnitine, 15 μg/mL D(+)-galactose, 16.1 μg/mL putrescine, 450 μM 1-thioglycerol, 55 μM 2-mercaptoethanol, 64 μg/mL L-ascorbic acid 2-phosphate (all from Sigma-Aldrich).
# [3] = test system: hiPSC; assay: Defined matrices: pluripotent growth and cardiac differentiation of hiPSC; assay type: cell-based, human
# Text: Determination that Laminin-Based Matrices are Most Suitable for Cardiac Differentiation. […] This lack of long-term adhesion during the differentiation was present irrelevant of vitronectin peptide concentrations and could be resolved by passaging and replating onto new matrix, yet we sought to find a more suitable solution. We assessed culture of hiPSC in E8 medium and subsequent differentiation on other defined matrices: recombinant human (rH) Ecadherin, rH vitronectin, rH laminin-521, truncated rH laminin-511, human fibronectin, or a fibronectin mimetic (FIG. 2a). Chemically defined long-term maintenance of pluripotency in E8 was successful on all surfaces except those based on fibronectin. […] Cells cultured on each of the five successful matrices (>6 passages) were then differentiated in CDM3. Although all matrices produced efficient differentiations (FIG. 2b), the laminin matrices were both successful for maintaining long-term adhesion during chemically defined cardiac differentiation (FIG. 2d), but prohibitively expensive for large-scale application. […]
# Growth assays. To assess cell growth, cells were counted using a Countess automated cell counter (Life Technologies). […] Cumulative population doublings was calculated using the formula n=3.32 [log10(N/N0)].
# Matrices. […] Matrices were assessed on both 6-well polystyrene tissue culture plates and untreated plates (both from Greiner). […]
# [4] = test system: hPSC; assay: Directed cardiac differentiation of hPSC in minimal media (Example 1); assay type: cell-based, human; conditions: for inducing cardiac differentiation (GSK-3β inhibitors, Wnt signaling agonists): BIO 2-5 μM, CHIR-99021 4-10 μM
# Protocol: Directed Cardiac Differentiation Procedure. (volumes provided are for a T25 flask; adjust volumes proportionately for larger vessels) Day 0 (day 4 after passage): Aspirate medium, and replace with 5 mL of minimal media (CDM3, D3, D4, or D11) supplemented with 6 uM of CHIR-99021 (CHIR-99021 can be used at 4-15 μM). Place flasks in a regular ambient O2, 5% CO2 incubator. Day 2: 48 h. Aspirate media and replace with 5 mL of minimal media (CDM3, D3, D4, or D11). Day 3: 72 h. Aspirate media and replace with 5 mL of minimal media (CDM3, D3, D4, or D11) supplemented with 0.5 uM C59 (C59 may be used at 0.5-5 μM). Day 5: Aspirate media and replace with 5 mL of minimal media (CDM3, D3, D4, or D11). From day 5 onwards media should be changed every 2 days with minimal media (CDM3, D3, D4, or D11).
# From day 0 to day 2 (d0-d2), minimal media (CDM3, D3, D4, or D11) was supplemented with the Wnt signaling agonist CHIR-99021 (6-10 uM 48 h, d0-d2), which triggers canonical Wnt/β-Catenin signaling that leads to the subsequent up-regulation of BMP4 and activin A. Media is then exchanged to non-supplemented minimal media (CDM3, D3, D4, or D11) for 1 day followed by contact with a Wnt signaling antagonist (e.g., C59: 0.5-5 uM, 48 h, d3-d5) for 2 days. At day 5, 7, and 9 minimal media (CDM3, D3, D4, or D11) is exchanged for fresh media, and contraction begins between d7 and d10. At day 11, media is exchanged to a variant of minimal media (CDM3, D3, D4, or D11) without […] that results in the depletion of non-cardiomyocytes due to a lack of glycogen stores. Media was exchanged on day 13 for fresh media lacking glucose. At day 15, media was exchanged for fresh minimal media (CDM3, D3, D4, or D11) (containing glucose).
# The presence of cardiomyocytes was verified in a number of different ways, for example: flow cytometry of cells contacted with an antibody specific for a cardiomyocyte marker (TNNT2); imaging of cells stained with antibodies specific for α-Sarcomeric actin (red) and Troponin T (TNNT2); electrophysiological profiling; and evaluating responsiveness to known cardioactive drugs (e.g., Norepinephrine). Assays performed on multiple different cell lines (including several hESC lines and over 30 hiPSC lines) confirmed that the subject methods are highly consistent and highly efficient, as very little variability was observed among the different cell lines.
molecule,measurement,setting,value
"O=C1O[C@H]([C@@H](O)CO)C(O)=C1OP(=O)(O)O [AA 2-P, L-ascorbic acid 2-phosphate]",effect of omitting the component from the differentiation medium,[1]; medium without AA 2-P (FIG. 10a),total cell death
same,9 components with the addition of: cardiac differentiation score,[2]; d) component at 10 x concentration,+++ (>75% contraction)
same,9 components (with 4 at 10x) subtracting: cardiac differentiation score,"[2]; e) third medium with increased concentrations, each component subtracted",0
same,6 components subtracting: cardiac differentiation score,"[2]; f) fourth 6-component medium, each component subtracted",0
same,2 components subtracting: cardiac differentiation score,"[2]; g) final 3-component medium (RPMI 1640, BSA, 10 x L-ascorbic acid 2-phosphate), component subtracted",0
recombinant laminin-521: recombinant human laminin-521 matrix,support of pluripotent hiPSC growth and long-term adherence of CMs,[3],most successful
c1ccc2c(-c3cnn4cc(-c5ccc(N6CCNCC6)cc5)cnc34)ccnc2c1 [LDN193189],further enhancement of differentiation by pathway inhibitors,[4]; small molecule inhibitors at the later stage of differentiation,did not further enhance the differentiation
"O=C1Nc2cc(Br)ccc2/C1=C1/Nc2ccccc2/C1=N\O [BIO, 6-bromo-3-[(3E)-1,3-dihydro-3-(hydroxyimino)-2H-indol-2-ylidene]-1,3-dihydro-(3Z)-2H-indol-2-one]","inducing cardiac differentiation (GSK-3β inhibitors, Wnt signaling agonists)",[4],successful at inducing cardiac differentiation
same,cell death / toxicity of GSK3B inhibitors,[1],did not cause total cell death
same,inducing cardiac differentiation (GSK3B inhibitors),[1],successful at inducing any suitable cardiac differentiation
OCC(O)CS (stereo not drawn) [1-thioglycerol],effect of addition on differentiation,"[4]; addition d0-d2, PVA 0.4%",severely limited rather than enhanced differentiation
same,9 components with the addition of: cardiac differentiation score,[2]; d) addition of components from the other media formulae of Table 5,0
Cc1cc(-c2ccc(CC(=O)Nc3ccc(-c4cccnc4)cc3)cc2)ccn1 [C59],Wnt signaling antagonist effective for cardiac differentiation,[4]; at a concentration of 5 μM,effective
same,timing of Wnt signaling modulation for cardiac differentiation efficiency,[1],optimal
"Cc1cnc(-c2cnc(NCCNc3ccc(C#N)cn3)nc2-c2ccc(Cl)cc2Cl)[nH]1 [CHIR-99021, 6-[[2-[[4-(2,4-dichlorophenyl)-5-(5-methyl-1H-imidazol-2-yl)-2-pyrimidinyl]amino]ethyl]amino]-3-pyridinecarbonitrile]","inducing cardiac differentiation (GSK-3β inhibitors, Wnt signaling agonists)",[4],successful at inducing cardiac differentiation
same,timing of Wnt signaling modulation for cardiac differentiation efficiency,[1],optimal
same,cell death / toxicity of GSK3B inhibitors,[1],did not cause total cell death
same,inducing cardiac differentiation (GSK3B inhibitors),[1],successful at inducing any suitable cardiac differentiation
